Assay results published in ChEMBL document CHEMBL5724914, “Linking interpersonal differences in gut microbiota composition and drug biotransformation activity” (2024).

Assays:
[1] = (§1) The drug is tested on WLS-086 corresponding to human gut metagenome with ENA study accession number: PRJEB37062 and ENA sample accession number: ERS12561752 for biotransformation under anaerobic condition. The drug concentrations were measured over 9 timepoints collected between 0 and 24 hours of incubation by liquid-chromatography-coupled mass spectrometry (LC–MS); details: 2 µM
[2] = as §1, with “WLS-170” for “WLS-086”, “ERS12561762” for “ERS12561752”; details: 2 µM
[3] = as §1, with “Z-026” for “WLS-086”, “to” for “to human gut”, “ERS12561825” for “ERS12561752”; details: 2 µM
[4] = human gut metagenome, 24 h, 2 µM
[5] = human gut metagenome, 24 h, 2 µM; remark: listed apart in the source
[6] = human gut metagenome, 24 h, 2 µM; remark: listed apart in the source
[7] = human gut metagenome, 24 h, 2 µM; remark: listed apart in the source
[8] = as §1, with “Z-014” for “WLS-086”, “rat” for “human”, “ERS12561814” for “ERS12561752”; details: 2 µM
[9] = human gut metagenome, 24 h, 2 µM; remark: listed apart in the source
[10] = as §1, with “Z-023” for “WLS-086”, “to” for “to human gut”, “ERS12561822” for “ERS12561752”; details: 2 µM
[11] = human gut metagenome, 24 h, 2 µM; remark: listed apart in the source
[12] = as §1, with “Z-029” for “WLS-086”, “rat” for “human”, “ERS12561828” for “ERS12561752”; details: 2 µM
[13] = as §1, with “WLS-082” for “WLS-086”, “ERS12561751” for “ERS12561752”; details: 2 µM
[14] = human gut metagenome, 24 h, 2 µM; remark: listed apart in the source
[15] = as §1, with “Z-020” for “WLS-086”, “rabbit” for “human”, “ERS12561819” for “ERS12561752”; details: 2 µM
[16] = human gut metagenome, 24 h, 2 µM; remark: listed apart in the source
[17] = as §1, with “Z-017” for “WLS-086”, “mouse” for “human”, “ERS12561816” for “ERS12561752”; details: 2 µM
[18] = as §1, with “WLS-010” for “WLS-086”, “ERS12561743” for “ERS12561752”; details: 2 µM
[19] = as §1, with “Z-022” for “WLS-086”, “mouse” for “human”, “ERS12561821” for “ERS12561752”; details: 2 µM
[20] = as §1, with “Z-012” for “WLS-086”, “to” for “to human gut”, “ERS12561812” for “ERS12561752”; details: 2 µM
Note: call rule not given here.

Compound	Bacterial Biotransformation [1]	Bacterial Biotransformation [2]	Bacterial Biotransformation [3]	Bacterial Biotransformation [4]	Bacterial Biotransformation [5]	Bacterial Biotransformation [6]	Bacterial Biotransformation [7]	Bacterial Biotransformation [8]	Bacterial Biotransformation [9]	Bacterial Biotransformation [10]	Bacterial Biotransformation [11]	Bacterial Biotransformation [12]	Bacterial Biotransformation [13]	Bacterial Biotransformation [14]	Bacterial Biotransformation [15]	Bacterial Biotransformation [16]	Bacterial Biotransformation [17]	Bacterial Biotransformation [18]	Bacterial Biotransformation [19]	Bacterial Biotransformation [20]
CC(C)(C)NCC(O)c1cc(Cl)c(N)c(Cl)c1 (stereo not given) [CLENBUTEROL]	Compound NOT metabolized	Compound NOT metabolized	Compound NOT metabolized	Compound NOT metabolized	Compound NOT metabolized	Compound NOT metabolized	Compound NOT metabolized	Compound NOT metabolized	Compound NOT metabolized	Compound NOT metabolized	Compound NOT metabolized	Compound NOT metabolized	Compound NOT metabolized	Compound NOT metabolized	Compound NOT metabolized	Compound NOT metabolized	Compound NOT metabolized	Compound NOT metabolized	Compound NOT metabolized	Compound NOT metabolized
C[N+]12CCC(CC1)C(OC(=O)C(O)(c1ccccc1)c1ccccc1)C2.[Br-] (stereo not given) [CLIDINIUM BROMIDE]	Compound metabolized	Compound metabolized	Compound NOT metabolized	Compound NOT metabolized	Compound metabolized	Compound NOT metabolized	Compound metabolized	Compound NOT metabolized	Compound NOT metabolized	Compound metabolized	Compound metabolized	Compound NOT metabolized	Compound NOT metabolized	Compound metabolized	Compound NOT metabolized	Compound NOT metabolized	Compound NOT metabolized	Compound NOT metabolized	Compound NOT metabolized	Compound NOT metabolized
Clc1cccc(Cl)c1N=C1NCCN1 [CLONIDINE]	Compound metabolized	Compound metabolized	Compound NOT metabolized	Compound NOT metabolized	Compound metabolized	Compound NOT metabolized	Compound NOT metabolized	Compound NOT metabolized	Compound NOT metabolized	Compound NOT metabolized	Compound metabolized	Compound NOT metabolized	Compound NOT metabolized	Compound metabolized	Compound metabolized	Compound metabolized	Compound NOT metabolized	Compound metabolized	Compound NOT metabolized	Compound metabolized
COC(=O)[C@H](c1ccccc1Cl)N1CCc2sccc2C1.O=S(=O)(O)O [CLOPIDOGREL BISULFATE]	Compound metabolized	Compound metabolized	Compound metabolized	Compound metabolized	Compound metabolized	Compound metabolized	Compound metabolized	Compound NOT metabolized	Compound metabolized	Compound metabolized	Compound metabolized	Compound NOT metabolized	Compound metabolized	Compound metabolized	Compound metabolized	Compound metabolized	Compound metabolized	Compound metabolized	Compound metabolized	Compound metabolized
O=P1(N(CCCl)CCCl)NCCCO1 (stereo not given) [CYCLOPHOSPHAMIDE ANHYDROUS]	Compound metabolized	Compound metabolized	Compound NOT metabolized	Compound NOT metabolized	Compound metabolized	Compound NOT metabolized	Compound NOT metabolized	Compound NOT metabolized	Compound NOT metabolized	Compound NOT metabolized	Compound metabolized	Compound NOT metabolized	Compound metabolized	Compound metabolized	Compound NOT metabolized	Compound metabolized	Compound NOT metabolized	Compound NOT metabolized	Compound NOT metabolized	Compound NOT metabolized
Br.COc1ccc2c(c1)[C@]13CCCC[C@@H]1[C@H](C2)N(C)CC3.O [DEXTROMETHORPHAN HYDROBROMIDE]	Compound metabolized	Compound NOT metabolized	Compound NOT metabolized	Compound metabolized	Compound metabolized	Compound NOT metabolized	Compound NOT metabolized	Compound NOT metabolized	Compound NOT metabolized	Compound metabolized	Compound metabolized	Compound NOT metabolized	Compound NOT metabolized	Compound metabolized	Compound metabolized	Compound NOT metabolized	Compound NOT metabolized	Compound metabolized	Compound NOT metabolized	Compound NOT metabolized
CC(=O)Nc1ccc(OC(C)=O)cc1 [DIACETAMATE]	Compound metabolized	Compound metabolized	Compound metabolized	Compound metabolized	Compound metabolized	Compound metabolized	Compound metabolized	Compound metabolized	Compound metabolized	Compound metabolized	Compound metabolized	Compound metabolized	Compound metabolized	Compound metabolized	Compound metabolized	Compound metabolized	Compound metabolized	Compound metabolized	Compound metabolized	Compound metabolized
